Earlier results as cited in paper PMC9869109 (Angewandte Chemie (International ed. in English), 2022).

Test system: cell nuclei
Settings: previous result ref 12

For NBD-llllpY, the nuclear-targeting ability is given as “weak nuclear-targeting ability”.
